Assay results: patent US9440957B2, “Compounds and compositions for modulating EGFR Activity” (Novartis AG, priority 2012, dated 2016)
Like-named read-outs stand apart in the source and are kept apart here.

Columns and labels:
[1] = biological target: T1, EGFR(L858R/T790M) (Homo sapiens, UniProt P00533, L858R/T790M); assay: EGFR biochemical assay (HTRF), IC50 determinations
T1 construct: purchased from Carna (GST-a.a. 669-1210)
Summary of the method: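 HTRF kinase reaction with biotin-TK peptide at room temperature, quenched with EDTA at 60 min and detected with PT66K/SAXL after 1 h. Without preincubation, enzyme starts the reaction with compound, ATP and peptide present. With preincubation, compound, enzyme and peptide sit at room temperature for a set time before ATP is added.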

[2] = biological target: human EGFR WT (NIH/3T3 cells, EGF-induced) (Homo sapiens, UniProt P00533); assay: EGFR target modulation in engineered NIH/3T3 cell lines (phospho-EGFR Y1068 AlphaLISA), EGFR WT; format: cell-based; conditions: engineered NIH/3T3 cells, read-out: NIH3T3 IC50 (μM) EGFR (WT)
Summary of the method: (§1)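 Engineered NIH/3T3 cells were plated overnight, then exposed to a 12-point 1:3 compound series (from a 10 μM stock) for 3 hours at 37 °C. WT-expressing cells alone were stimulated with 50 ng/ml EGF for 5 minutes before lysis. IC50s came from non-linear fits of AlphaLISA signal.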

[3] = biological target: human EGFR L858R (NIH/3T3 cells) (Homo sapiens, UniProt P00533, L858R); assay: EGFR target modulation in engineered NIH/3T3 cell lines (phospho-EGFR Y1068 AlphaLISA), EGFR L858R; format: cell-based; conditions: engineered NIH/3T3 cells, read-out: NIH3T3 IC50 (μM) EGFR (L858R)
Summary of the method: as §1

[4] = biological target: human EGFR L858R/T790M (NIH/3T3 cells) (Homo sapiens, UniProt P00533, L858R/T790M); assay: EGFR target modulation in engineered NIH/3T3 cell lines (phospho-EGFR Y1068 AlphaLISA), EGFR L858R/T790M; format: cell-based; conditions: engineered NIH/3T3 cells, read-out: NIH3T3 IC50 (μM) EGFR (L858R/T790M)
Summary of the method: as §1

[5] = biological target: H1975 (EGFR L858/T790M) (Homo sapiens, UniProt P00533, L858R/T790M); assay: EGFR target modulation in H1975 cell line (phospho-EGFR Y1173 ELISA); format: cell-based
Description: (§2) EGFR Target Modulation in H1975, H3255 and HCC827 Cell Lines Tissue Culture. Cells were maintained in 10% FBS/RPMI supplemented with 100 μg/ml Penicillin/Streptomycin (Hyclone #SH30236.01). […] The cells were allowed to incubate overnight in a 37° C., 5% CO2 humidified tissue culture incubator. […] The serial diluted compounds were transferred to the plate containing cells by using a 50 nl Pin Head device (Perkin Elmer) and the cells were placed back in the incubator for 3 hours. Phospho-EGFR ([…]) Target Modulation Assay. The media was reduced to 20 ul using a Bio-Tek ELx 405 SelectTM plate washer. […] The plates were shaken at 4° C. for 20 minutes. An aliquot of 25 ul from each well was transferred to pEGFR(Y1173) ELISA plates for analysis. Phospho-EGFR ([…]) ELISA. Solid white high-binding ELISA plates (Greiner #781074) were coated with 5 ug/ml anti-EGFR capture antibody (R&D Systems #AF231) overnight in 50 mM carbonate/bicarbonate pH 9.5 buffer. Plates were blocked with 1% BSA (Sigma #A7030) in PBS for 1 hour at room temperature. Wash steps were carried out with a Bio-Tek ELx405 SelectTM using 4 cycles of 100 ul TBS-T (20 mM Tris, 137 mM NaCl, 0.05% Tween-20) per well. […] Lysis was allowed to occur for 20 minutes on ice. A 25 ul aliquot was added to each well of the blocked ELISA plate and incubated overnight at 4° C. with gentle shaking. […] After washing, 1:2,000 anti-rabbit-HRP (Cell Signaling #7074) in 0.2% BSA/TBS-T was added and incubated for 1 hour at room temperature. Chemiluminescent detection was carried out with SuperSignal ELISA Pico substrate (ThermoScientific #37069). Signal was read on EnVision plate reader using built-in UltraLUM setting. Data Analysis. Control cells treated with EGF were set to 100% maximum response. […] With these parameters, the IC50's for each compound in each cell line was calculated using non-linear curve fitting analysis.

[6] = biological target: H3255 (EGFR L858R) (Homo sapiens, UniProt P00533, L858R); assay: EGFR target modulation in H3255 cell line (phospho-EGFR Y1173 ELISA); format: cell-based
Description: as §2

[7] = biological target: HEKn (EGFR WT) (Homo sapiens, UniProt P00533); assay: EGFR target modulation in HEKn (EGFR-WT) cell line (phospho-EGFR Y1173 ELISA); format: cell-based; conditions: value outside parentheses
Description: EGFR Target Modulation in HEKn (EGFR-WT) Cell Line Tissue Culture. Human neonatal epithelial keratinocytes (Invitrogen #C-001-5C) were maintained in EpiLife media (Invitrogen #[…]) supplemented with growth factors (Invitrogen #S-001-5). Cells were harvested with 0.05% Trypsin/EDTA (Hyclone #SH30236.01) and quenched with 5% FBS/EpiLife media. […] The serial diluted compounds were transferred to the plate containing cells by using a 50 nl Pin Head device (Perkin Elmer) and the cells were placed back in the incubator for 3 hours. […] Phospho-EGFR (Y1173) ELISA. Solid white high-binding ELISA plates (Greiner #781074) were coated with 5 ug/ml anti-EGFR capture antibody (R&D Systems #AF231) overnight in 50 mM carbonate/bicarbonate pH 9.5 buffer. […] Wash steps were carried out with a Bio-Tek ELx405 SelectTM using 4 cycles of 100 ul TBS-T (20 mM Tris, 137 mM NaCl, 0.05% Tween-20) per well. […] Lysis was allowed to occur for 20 minutes on ice. A 25 ul aliquot was added to each well of the blocked ELISA plate and incubated overnight at 4° C. with gentle shaking. […] After washing, 1:2,000 anti-rabbit-HRP (Cell Signaling #7074) in 0.2% BSA/TBS-T was added and incubated for 1 hour at room temperature. Chemiluminescent detection was carried out with SuperSignal ELISA Pico substrate (ThermoScientific #37069). Signal was read on EnVision plate reader using built-in UltraLUM setting. Data Analysis. Control cells treated with EGF were set to 100% maximum response. […] With these parameters, the IC50's for each compound in each cell line was calculated using non-linear curve fitting analysis.

[8] = EGFR (L858R/T790M) with 90 min pre-incubation, read-out: IC50 (μM) Column B
[9] = EGFR (L858R/T790M) with no pre-incubation, read-out: IC50 (μM) Column A

Sequence of human EGFR L858R (NIH/3T3 cells) (P00533 25-1210 L858R): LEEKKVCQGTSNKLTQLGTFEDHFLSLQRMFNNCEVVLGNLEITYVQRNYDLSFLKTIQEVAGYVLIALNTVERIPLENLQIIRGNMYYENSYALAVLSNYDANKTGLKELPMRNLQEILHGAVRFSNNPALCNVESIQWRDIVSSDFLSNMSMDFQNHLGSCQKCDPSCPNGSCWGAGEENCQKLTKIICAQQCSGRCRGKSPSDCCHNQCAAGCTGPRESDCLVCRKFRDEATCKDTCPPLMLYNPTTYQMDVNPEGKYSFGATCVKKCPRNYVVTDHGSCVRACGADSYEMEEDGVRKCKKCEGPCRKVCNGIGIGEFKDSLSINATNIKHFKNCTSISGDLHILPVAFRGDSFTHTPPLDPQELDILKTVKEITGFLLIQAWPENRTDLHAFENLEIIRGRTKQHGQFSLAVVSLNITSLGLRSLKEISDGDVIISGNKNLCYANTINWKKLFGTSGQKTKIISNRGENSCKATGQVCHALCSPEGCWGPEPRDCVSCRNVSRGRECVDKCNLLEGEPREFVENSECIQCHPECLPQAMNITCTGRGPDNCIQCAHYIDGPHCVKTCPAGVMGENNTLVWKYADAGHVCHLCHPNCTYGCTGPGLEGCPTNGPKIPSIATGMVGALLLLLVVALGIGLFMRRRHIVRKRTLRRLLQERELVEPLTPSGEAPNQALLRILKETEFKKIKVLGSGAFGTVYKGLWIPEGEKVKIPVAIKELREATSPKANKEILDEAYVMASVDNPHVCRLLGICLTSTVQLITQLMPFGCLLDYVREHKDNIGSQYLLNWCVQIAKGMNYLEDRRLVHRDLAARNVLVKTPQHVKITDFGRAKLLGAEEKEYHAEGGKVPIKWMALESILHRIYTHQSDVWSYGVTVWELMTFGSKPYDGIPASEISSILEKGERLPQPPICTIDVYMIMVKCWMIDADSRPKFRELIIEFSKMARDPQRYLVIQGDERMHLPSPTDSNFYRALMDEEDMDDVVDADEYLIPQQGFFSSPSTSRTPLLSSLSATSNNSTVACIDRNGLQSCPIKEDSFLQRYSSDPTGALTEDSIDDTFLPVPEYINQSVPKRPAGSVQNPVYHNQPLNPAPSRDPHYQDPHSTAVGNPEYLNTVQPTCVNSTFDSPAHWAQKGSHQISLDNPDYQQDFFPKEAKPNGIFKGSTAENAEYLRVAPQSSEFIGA
Sequence of H3255 (EGFR L858R) (P00533 25-1210 L858R): as above
Sequence of human EGFR WT (NIH/3T3 cells, EGF-induced) (P00533 25-1210): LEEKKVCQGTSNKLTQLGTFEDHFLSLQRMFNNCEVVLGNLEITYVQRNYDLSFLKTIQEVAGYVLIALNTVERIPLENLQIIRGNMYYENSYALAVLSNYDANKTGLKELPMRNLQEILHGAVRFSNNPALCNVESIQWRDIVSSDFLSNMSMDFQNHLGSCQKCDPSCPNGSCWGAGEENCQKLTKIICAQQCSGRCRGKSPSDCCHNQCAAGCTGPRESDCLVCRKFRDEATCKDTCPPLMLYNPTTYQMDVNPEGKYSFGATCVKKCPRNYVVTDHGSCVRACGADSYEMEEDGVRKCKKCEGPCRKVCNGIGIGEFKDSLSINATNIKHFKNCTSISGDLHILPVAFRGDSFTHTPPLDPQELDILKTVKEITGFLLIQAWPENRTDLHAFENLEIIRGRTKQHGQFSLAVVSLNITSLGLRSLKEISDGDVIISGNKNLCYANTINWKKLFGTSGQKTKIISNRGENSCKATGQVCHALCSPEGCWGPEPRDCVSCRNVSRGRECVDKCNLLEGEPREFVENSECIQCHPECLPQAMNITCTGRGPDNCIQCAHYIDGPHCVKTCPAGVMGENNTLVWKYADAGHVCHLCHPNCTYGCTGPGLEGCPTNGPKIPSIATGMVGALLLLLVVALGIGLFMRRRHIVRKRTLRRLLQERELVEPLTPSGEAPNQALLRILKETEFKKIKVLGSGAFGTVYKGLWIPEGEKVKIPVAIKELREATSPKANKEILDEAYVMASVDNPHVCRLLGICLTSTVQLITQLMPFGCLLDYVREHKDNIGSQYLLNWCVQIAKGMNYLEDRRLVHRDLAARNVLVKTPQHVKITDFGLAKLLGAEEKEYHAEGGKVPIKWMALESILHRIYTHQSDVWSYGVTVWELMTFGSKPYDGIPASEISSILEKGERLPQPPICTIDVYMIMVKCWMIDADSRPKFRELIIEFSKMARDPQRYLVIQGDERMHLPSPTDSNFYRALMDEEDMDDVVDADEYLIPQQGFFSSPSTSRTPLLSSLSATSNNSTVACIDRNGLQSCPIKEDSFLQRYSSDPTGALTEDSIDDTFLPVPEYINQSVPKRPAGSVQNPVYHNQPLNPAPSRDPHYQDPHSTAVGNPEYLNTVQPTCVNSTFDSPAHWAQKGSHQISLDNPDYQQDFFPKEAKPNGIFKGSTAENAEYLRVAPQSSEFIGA
Sequence of HEKn (EGFR WT) (P00533 25-1210): as above

| SMILES | IC50 [1, 8] [µM] | IC50 [1, 9] [µM] | IC50 [2] [µM] | IC50 [3] [µM] | IC50 [4] [µM] | IC50 [5] [nM] | IC50 [6] [nM] | IC50 [7] [nM] |
| --- | --- | --- | --- | --- | --- | --- | --- | --- |
| Cc1cc(C(=O)Nc2nc3cccc(Cl)c3n2[C@@H]2CCCCN(C(=O)/C=C/CN3CC[C@H](F)C3)C2)ccn1 [Example 3-2] | < 0.001 | 0.007 | 0.303 | 0.006 | 0.006 | 9 | 11 | 720 |
| Cc1noc(-c2cccc3nc(NC(=O)c4ccccc4)n(C4COCCN(C(=O)/C=C/CN(C)C)C4)c23)n1 (stereo not shown) [Example 17-142] | 0.01 | 0.32 | 5.2 | 0.34 | 0.09 | 105 | 640 | > 10000 |
| COc1ccc(C(=O)Nc2nc3cccc(C)c3n2C2CCCCN(C(=O)/C=C/CN(C)C)C2)cn1 (stereo not shown) [Example 17-45] | < 0.001 | 0.006 | 0.057 | 0.002 | 0.003 | 7 | 3 | 142 |
| Cc1cc(C(=O)Nc2nc3cccc(C)c3n2[C@@H]2CCCCN(C(=O)/C=C/CN(C)C)C2)cnn1 [Example 17-82] | < 0.001 | 0.007 | 0.187 | 0.007 | 0.007 | 10 | 29 | 370 |
| Cc1cccc2nc(NC(=O)c3ccnnc3)n([C@@H]3CCCCN(C(=O)/C=C/CN(C)C)C3)c12 [Example 17-95] | < 0.001 | 0.002 | 0.026 | 0.002 | 0.002 | 3 | 3 | 127 |
| Cc1cccc2nc(NC(=O)c3cncc(F)c3)n([C@@H]3CCCCN(C(=O)/C=C/CN(C)C)C3)c12 [Example 17-69] | < 0.001 | 0.002 | 0.02 | 0.001 | < 0.001 | 1 | 6 | 71 |
| Cc1cccc2nc(NC(=O)c3cccc(S(C)(=O)=O)c3)n(C3CCCCN(C(=O)/C=C/CN(C)C)C3)c12 (stereo not shown) [Example 17-52] | < 0.001 | 0.002 | 0.103 | 0.003 | < 0.001 | 2 | 5 | 320 |
| Cc1cc(C(=O)Nc2nc3cccc(Cl)c3n2[C@@H]2CCCCN(C(=O)/C=C/CN3CC(O)C3)C2)ccn1 [Example 3-13] | < 0.001 | 0.007 | 0.41 | 0.014 | 0.022 | 19 | 12 | 900 |
| Cc1nccc(C(=O)Nc2nc3cccc(C)c3n2C2CCCCN(C(=O)/C=C/CN(C)C)C2)n1 (stereo not shown) [Example 17-54] | 0.005 | 0.09 | 0.56 | 0.022 | 0.041 | 78 | 81 | 4900 |
| Cc1cccc2nc(NC(=O)c3cncc(C(F)(F)F)c3)n([C@@H]3CCCCN(C(=O)/C=C/CN(C)C)C3)c12 [Example 17-67] | < 0.001 | 0.003 | 0.05 | 0.004 | 0.001 | 2 | 15 | 249 |
| Cc1cccc2nc(NC(=O)c3cncc(-n4cccc4)c3)n([C@@H]3CCCCN(C(=O)/C=C/CN(C)C)C3)c12 [Example 17-70] | < 0.001 | < 0.001 | 0.035 | 0.001 | < 0.001 | < 1 | 7 | 185 |
| Cc1cccc2nc(NC(=O)c3ccccc3)n(C3CCCCN(C(=O)/C=C/CN(C)C)C3)c12 (stereo not shown) [Example 17-40] | < 0.001 | 0.007 | 0.49 | 0.017 | 0.008 | 7 | 130 | 760 |
| Cc1cccc2nc(NC(=O)c3ccc(F)cc3)n(C3CCCCN(C(=O)/C=C/CN(C)C)C3)c12 (stereo not shown) [Example 17-26] | < 0.001 | 0.005 | 0.139 | 0.003 | 0.005 | 5 | 15 | 190 |
| Cc1cccc2nc(NC(=O)c3cnc(Cl)c(Cl)c3)n([C@@H]3CCCCN(C(=O)/C=C/CN(C)C)C3)c12 [Example 17-78] | < 0.001 | 0.006 | 0.152 | 0.005 | 0.006 | 134 | 37 | 1680 |
